Measured values published in ChEMBL document CHEMBL4359897, “Discovery of novel functionalized 1,2,4-triazoles as PARP-1 inhibitors in breast cancer: Design, synthesis and antitumor activity evaluation” (Eur J Med Chem, 2019).
Calls of active or inactive are those of the source. The rule behind the calls is not given here.

Tests used:
[1] = test system: MCF7; test: Antiproliferative activity against human MCF7 cells incubated for 30 hrs by hematoxylin staining based BrdU incorporation assay; type: functional, cell-based
[2] = biological target: Poly [ADP-ribose] polymerase 1 (Homo sapiens, UniProt P09874); test: Inhibition of recombinant human full length N-terminal GST- tagged PARP1 expressed in baculovirus infected sf9 cells using Colorimetric HRP as substrate incubated for 30 mins by UV/Vis spectrophotometer analysis
Sequence of Poly [ADP-ribose] polymerase 1 (P09874 whole entry): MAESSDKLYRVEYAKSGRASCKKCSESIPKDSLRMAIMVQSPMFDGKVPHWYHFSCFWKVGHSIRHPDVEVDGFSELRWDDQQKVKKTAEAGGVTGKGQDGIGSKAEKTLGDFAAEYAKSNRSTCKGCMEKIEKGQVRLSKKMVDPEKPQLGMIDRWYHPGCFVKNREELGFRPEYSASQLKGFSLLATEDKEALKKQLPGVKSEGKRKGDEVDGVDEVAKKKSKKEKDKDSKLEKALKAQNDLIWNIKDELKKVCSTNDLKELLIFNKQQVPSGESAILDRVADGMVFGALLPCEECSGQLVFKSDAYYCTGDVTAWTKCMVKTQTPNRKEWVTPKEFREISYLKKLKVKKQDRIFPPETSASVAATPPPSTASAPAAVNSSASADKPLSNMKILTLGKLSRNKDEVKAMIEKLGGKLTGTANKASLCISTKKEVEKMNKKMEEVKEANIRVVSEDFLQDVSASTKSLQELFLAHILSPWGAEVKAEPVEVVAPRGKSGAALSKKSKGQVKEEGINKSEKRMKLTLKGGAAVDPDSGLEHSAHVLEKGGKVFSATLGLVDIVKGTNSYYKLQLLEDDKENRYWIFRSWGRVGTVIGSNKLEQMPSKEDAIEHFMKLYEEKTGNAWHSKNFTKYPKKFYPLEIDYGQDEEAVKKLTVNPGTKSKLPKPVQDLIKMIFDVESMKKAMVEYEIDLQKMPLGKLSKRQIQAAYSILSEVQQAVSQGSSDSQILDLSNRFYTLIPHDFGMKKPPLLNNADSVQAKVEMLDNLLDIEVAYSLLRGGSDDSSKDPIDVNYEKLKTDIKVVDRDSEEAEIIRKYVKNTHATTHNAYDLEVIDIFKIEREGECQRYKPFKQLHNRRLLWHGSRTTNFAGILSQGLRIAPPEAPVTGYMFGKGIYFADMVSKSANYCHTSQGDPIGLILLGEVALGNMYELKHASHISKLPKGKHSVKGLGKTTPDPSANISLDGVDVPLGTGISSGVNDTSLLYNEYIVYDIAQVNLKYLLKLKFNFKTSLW

[3] = test system: MCF7; test: Antiproliferative activity against human MCF7 cells assessed as increase in PARP1-89 protein expression at 5 uM incubated for 30 hrs by Western blot analysis; type: functional, cell-based
[4] = test system: MCF7; test: Cytotoxicity against human MCF7 cells assessed as increase in extra cellular LDH at 2.5 to 5 uM incubated for 30 hrs by spectrophotometric based LDH assay; type: functional, cell-based
[5] = test system: MCF7; test: Inhibition of cell migration in human MCF7 cells incubated for 30 hrs by scratch wound assay; type: functional, cell-based
[6] = test system: MCF7; test: Cytotoxicity against human MCF7 cells at 2.5 to 5 uM incubated for 30 hrs by MTT assay; type: functional, cell-based
[7] = test system: MCF7; test: Inhibition of cell migration in human MCF7 cells at 2.5 to 5 uM incubated for 30 hrs by scratch wound assay relative to control; type: functional

| SMILES | IC50 [2] [µM] | Activity [1] | Activity [3] | Activity [4] | inhibition [5] | Activity [6] | inhibition (INH) [7] | inhibition [7] |
| --- | --- | --- | --- | --- | --- | --- | --- | --- |
| C=CCSc1nnc(-c2cc3ccccc3n2CC=C)n1-c1ccccc1 | 0.35 | Dose-dependent effect | Active | Active | Dose-dependent effect | Active | 30 - 40% | – |
| CC(=O)OC[C@H]1O[C@@H](Sc2nnc(-c3cc4ccccc4[nH]3)n2-c2ccccc2)[C@H](OC(C)=O)[C@@H](OC(C)=O)[C@@H]1OC(C)=O | 2.22 | Dose-dependent effect | inactive | Active | – | Active | – | inactive |
| O=C(c1cc(Cc2n[nH]c(=O)c3ccccc23)ccc1F)N1CCN(C(=O)C2CC2)CC1 | – | – | – | – | – | Active | – | – |

Second part, led by results:

| IC50 [2] [µM] | SMILES | Activity [1] | Activity [3] | Activity [4] | inhibition [5] | Activity [6] | inhibition (INH) [7] | inhibition [7] |
| --- | --- | --- | --- | --- | --- | --- | --- | --- |
| 8.08 | S=c1[nH]nc(CSc2nnc(-c3cc4ccccc4[nH]3)n2-c2ccccc2)n1-c1ccccc1 | – | – | Active | – | – | – | – |
| 2.4 | C=CCSc1nnc(-c2cc3ccccc3[nH]2)n1-c1ccccc1 | Dose-dependent effect | Active | Active | Dose-dependent effect | Active | 30 - 40% | – |
| 0.33 | CC(O)CSc1nnc(-c2cc3ccccc3[nH]2)n1-c1ccccc1 (configuration not stated) | – | – | Active | – | – | – | – |
| 2.1 | S=c1[nH]nc(-c2cc3ccccc3[nH]2)n1-c1ccccc1 | Dose-dependent effect | Active | Active | Dose-dependent effect | Active | 30 - 40% | – |
